Measurements taken from US11413301B2, “Composition comprising sea cucumber extract as effective ingredient for preventing and treating Bruch's membrane dysfunction-related disease” (priority 2016, dated 2022).

Tests used:
human Bruch's membrane = experiment: Hydraulic conductivity of isolated Bruch's membrane (open-type Ussing chamber, fluid transport under hydrostatic pressure)
Protocol: First, to confirm the waste transport ability, the hydraulic conductivity of the Bruch's membrane isolated from a donated eye was measured. The isolated Bruch's membrane was mounted in an open-type Ussing chamber to measure a quantitative change in fluid under hydrostatic pressure and calculate a change in hydraulic conductivity (FIGS. 5B and 5C). […] The data of FIG. 5D is expressed using a semi-log plot with the logarithmic scale on the y-axis to convert exponential decay to a linear plot. To maintain the function of photoreceptor cells, the Bruch's membrane requires a minimal hydraulic conductivity function, which represents a failure line. […] All of the hydraulic conductivities measured for the peripheral regions of the 11 macular degeneration patients may be observed to be below the mean regression line (refer to the black circle and the red line in FIG. 5E), showing that, in the peripheral region, rather than the macular region, the decrease in the material transport function progresses to a serious condition. […]
In addition, to investigate the improvement of the transport function of the Bruch's membrane according to the dose of the sea cucumber extract, Bruch's membranes isolated from the eyes of four donors ranging from 69 to 84 years of age were measured, a dose response curve for the improvement of hydraulic conductivity was expressed. […]

[1] = tested on: lipids of Bruch's membrane; experiment: Lipid removal from Bruch's membrane by Frondoside A (lipid extracted from membrane, TLC); parameters: species or system human; details: Frondoside A 167 μg/mL, membrane after hydraulic conductivity measurement
Protocol: To confirm the lipid removal effect of Frondoside A, after the measurement of hydraulic conductivity in Example 10, the Bruch's membrane was cut into a piece having a diameter of 6 mm, and then a lipid was extracted using a CM solution (chloroform:methanol=2:1), followed by evaporating the solvent. After 50 μL of a CM solution was added thereto again, 40 μL of the resulting solution was dropped on a silica gel TLC plate, and the type and amount of the lipid were analyzed.

[2] = tested on: MMP enzyme secreted from a human Bruch's membrane; experiment: MMP secretion from Bruch's membrane incubated with Frondoside A (zymography); details: Frondoside A 167 μg/mL, 30 hours
Protocol: Zymography was performed using the solution incubated for 30 hours in the measurement of hydraulic conductivity in Example 10. Specifically, a Bruch's membrane was incubated with a Tris buffer solution as a control or a Frondoside A solution (167 μg/mL) for 30 hours, 50 μL of the resulting solution was mixed with 50 μL of the SDS sample buffer, and then 30 μL of the resulting mixture was loaded on a gel to measure an MMP enzyme secreted from a human Bruch's membrane.

Compound: COC1C(O)C(CO)OC(OC2C(O)COC(OC3C(C)OC(OC4C(O[C@H]5CC[C@]6(C)C7CCC89C(=O)O[C@@](C)(CCCC(C)C)[C@H]8[C@@H](OC(C)=O)C[C@@]9(C)C7=CC[C@H]6C5(C)C)OCC(OS(=O)(=O)[O-])C4O)C(OC4OCC(O)C(O)C4O)C3O)C2O)C1O.[Na+] (stereo partly shown) [Frondoside A]
- effect on the improvement of hydraulic conductivity relative to the control (human Bruch's membrane; Frondoside A 167 μg/mL, control Tris buffer): ≥ 1.6 fold
- hydraulic conductivity Fold-change Mean ± SD (n) (human Bruch's membrane; Frondoside A 167 μg/ml): 1.65 ± 0.2 (3) Fold-change
- removal of Ch from the Bruch's membrane [1]: did not have an effect
- removal of ChE from the Bruch's membrane [1]: did not have an effect
- removal of TG from the Bruch's membrane [1]: did not have an effect
- removal of phosphatidylcholine from the Bruch's membrane [1]: had an effect of removing phosphatidylcholine
- secretion of Pro-MMP9 bound to the membrane [2]: an enormous amount of Pro-MMP9 bound to the membrane was secreted
